Experimental data taken from patent US11566007B2, “Ras inhibitors” (Revolution Medicines, Inc., priority 2019, dated 2023).

Assays:
[1] = biological target: K-Ras G12C (Homo sapiens (Human), UniProt P01116+P62937, G12C); assay: Ras-Raf (BRAF RBD) disruption / FRET / MOA assay, KRAS G12C; format: biochemical; details: KRAS G12C; Ras-Raf disruption/FRET/MOA assay; read-out: IC50* KRAS G12C FRET data
Procedure, shortened: (§1)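 Compounds, top final concentration 30 μM in 10-point 3-fold series, incubated 3 hours at 25° C with nucleotide-loaded Ras, cyclophilin A and BRAF RBD.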

[2] = biological target: K-Ras G13C (Homo sapiens (Human), UniProt P01116+P62937, G13C); assay: Ras-Raf (BRAF RBD) disruption / FRET / MOA assay, KRAS G13C; format: biochemical; details: KRAS G13C; Ras-Raf disruption/FRET/MOA assay; read-out: IC50* KRAS G13C FRET data
Chain of K-Ras G13C (P01116-2 other isoform, or with tags, fused parts or gaps G13C): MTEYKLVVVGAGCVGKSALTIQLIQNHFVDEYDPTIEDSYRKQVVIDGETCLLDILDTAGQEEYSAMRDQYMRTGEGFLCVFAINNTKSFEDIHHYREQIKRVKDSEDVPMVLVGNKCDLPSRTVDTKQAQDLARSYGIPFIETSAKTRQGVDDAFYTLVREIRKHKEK
Chain of K-Ras G13C (P62937 whole entry): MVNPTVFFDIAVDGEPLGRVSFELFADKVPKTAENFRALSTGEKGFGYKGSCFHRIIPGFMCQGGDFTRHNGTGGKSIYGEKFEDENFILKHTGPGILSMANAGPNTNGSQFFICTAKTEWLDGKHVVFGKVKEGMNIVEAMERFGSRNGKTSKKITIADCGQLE
Procedure, shortened: as §1

[3] = biological target: KRAS G12S (Homo sapiens (Human), UniProt P01116+P62937, G12S); assay: Ras-Raf (BRAF RBD) disruption / FRET / MOA assay, KRAS G12S; format: biochemical; details: Ras-Raf disruption/FRET/MOA assay; class symbols; read-out: KRAS G12S FRET data IC50
Chain of KRAS G12S (P01116-2 other isoform, or with tags, fused parts or gaps G12S): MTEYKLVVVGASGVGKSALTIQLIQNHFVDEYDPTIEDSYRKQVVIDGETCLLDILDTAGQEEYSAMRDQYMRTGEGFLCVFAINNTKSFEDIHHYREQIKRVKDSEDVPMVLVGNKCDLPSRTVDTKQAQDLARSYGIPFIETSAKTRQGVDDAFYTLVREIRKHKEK
Chain of KRAS G12S (P62937 whole entry): as the sequence (P62937 whole entry) above
Procedure, shortened: as §1

[4] = biological target: KRAS G12D (Homo sapiens (Human), UniProt P01116+P62937, G12D); assay: Ras-Raf (BRAF RBD) disruption / FRET / MOA assay, KRAS G12D; format: biochemical; details: Ras-Raf disruption/FRET/MOA assay; class symbols; read-out: KRAS G12D FRET data IC50
Chain of KRAS G12D (P01116-2 other isoform, or with tags, fused parts or gaps G12D): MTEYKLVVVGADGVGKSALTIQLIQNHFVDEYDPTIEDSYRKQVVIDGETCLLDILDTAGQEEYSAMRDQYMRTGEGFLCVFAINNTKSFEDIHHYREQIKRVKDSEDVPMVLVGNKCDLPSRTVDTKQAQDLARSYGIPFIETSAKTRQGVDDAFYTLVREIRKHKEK
Chain of KRAS G12D (P62937 whole entry): as the sequence (P62937 whole entry) above
Procedure, shortened: as §1

[5] = biological target: KRAS G12V (Homo sapiens (Human), UniProt P01116+P62937, G12V); assay: Ras-Raf (BRAF RBD) disruption / FRET / MOA assay, KRAS G12V; format: biochemical; details: read-out: IC50* KRAS G12V FRET data
Chain of KRAS G12V (P01116-2 other isoform, or with tags, fused parts or gaps G12V): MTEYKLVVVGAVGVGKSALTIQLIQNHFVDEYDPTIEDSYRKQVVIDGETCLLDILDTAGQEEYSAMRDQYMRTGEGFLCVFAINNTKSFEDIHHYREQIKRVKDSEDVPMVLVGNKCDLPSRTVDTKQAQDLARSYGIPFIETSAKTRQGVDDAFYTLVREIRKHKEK
Chain of KRAS G12V (P62937 whole entry): as the sequence (P62937 whole entry) above
Procedure, shortened: as §1

[6] = biological target: KRAS WT (Homo sapiens (Human), UniProt P01116+P62937); assay: Ras-Raf (BRAF RBD) disruption / FRET / MOA assay, KRAS WT; format: biochemical; details: read-out: IC50* KRAS WT FRET data
Chain of KRAS WT (P01116-2 other isoform, or with tags, fused parts or gaps): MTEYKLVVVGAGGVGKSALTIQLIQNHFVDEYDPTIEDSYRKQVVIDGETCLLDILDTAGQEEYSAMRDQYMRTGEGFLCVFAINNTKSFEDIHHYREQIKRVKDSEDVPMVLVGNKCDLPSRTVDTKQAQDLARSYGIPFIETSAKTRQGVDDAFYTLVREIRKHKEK
Chain of KRAS WT (P62937 whole entry): as the sequence (P62937 whole entry) above
Procedure, shortened: as §1

[7] = biological target: KRAS G13D (Homo sapiens (Human), UniProt P01116+P62937, G13D); assay: Ras-Raf (BRAF RBD) disruption / FRET / MOA assay, KRAS G13D; format: biochemical; details: read-out: IC50* KRAS G13D FRET data
Chain of KRAS G13D (P01116-2 other isoform, or with tags, fused parts or gaps G13D): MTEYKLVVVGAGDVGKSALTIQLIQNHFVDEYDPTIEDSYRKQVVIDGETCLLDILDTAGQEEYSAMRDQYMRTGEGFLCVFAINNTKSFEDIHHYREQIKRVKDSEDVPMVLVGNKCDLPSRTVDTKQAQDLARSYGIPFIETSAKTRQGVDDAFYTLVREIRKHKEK
Chain of KRAS G13D (P62937 whole entry): as the sequence (P62937 whole entry) above
Procedure, shortened: as §1

[8] = biological target: KRAS Q61H (Homo sapiens (Human), UniProt P01116+P62937, Q61H); assay: Ras-Raf (BRAF RBD) disruption / FRET / MOA assay, KRAS Q61H; format: biochemical; details: Ras-Raf disruption/FRET/MOA assay; class symbols; read-out: KRAS Q61H FRET data IC50
Chain of KRAS Q61H (P01116-2 other isoform, or with tags, fused parts or gaps Q61H): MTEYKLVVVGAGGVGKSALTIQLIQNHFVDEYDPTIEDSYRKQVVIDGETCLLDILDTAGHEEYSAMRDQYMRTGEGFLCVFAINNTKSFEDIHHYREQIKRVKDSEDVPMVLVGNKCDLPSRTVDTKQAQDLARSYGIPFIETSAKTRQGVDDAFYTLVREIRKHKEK
Chain of KRAS Q61H (P62937 whole entry, canonical isoform): as the sequence (P62937 whole entry) above
Procedure: (§2) The purpose of this biochemical assay is to measure the ability of test compounds to facilitate ternary complex formation between a nucleotide-loaded Ras isoform and cyclophilin A; the resulting ternary complex disrupts binding to a BRAF^RBD construct, inhibiting Ras signaling through a RAF effector.
(§3) […]. Compound is present in plate wells as a 10-point 3-fold dilution series starting at a final concentration of 30 μM. After incubation at 25° C. for 3 hours, a mixture of Anti-His Eu-W1024 and anti-GST allophycocyanin is then added to assay sample wells at final concentrations of 10 nM and 50 nM, respectively, and the reaction incubated for an additional 1.5 hours. […] Compounds that facilitate disruption of a Ras:RAF complex are identified as those eliciting a decrease in the TR-FRET ratio relative to DMSO control wells.
(§4) Note—The following protocol describes a procedure for monitoring disruption of K-Ras G12C (GMP-PNP) binding to BRAF^RBD by a compound of the invention. This protocol may also be executed substituting other Ras proteins or nucleotides.
(§5) The purpose of this biochemical assay was to measure the ability of test compounds to facilitate ternary complex formation between a nucleotide-loaded K-Ras isoform and Cyclophilin A; the resulting ternary complex disrupts binding to a BRAF^RBD construct, inhibiting K-Ras signaling through a RAF effector. Data is reported as IC50 values.
as §3, with “Compound was” for “Compound is”, “allophycocyanin was” for “allophycocyanin is”, “a K-Ras:RAF” for “a Ras:RAF”, “complex were” for “complex are”

[9] = biological target: NRAS G12C (Homo sapiens (Human), UniProt P01111+P62937, G12C); assay: Ras-Raf (BRAF RBD) disruption / FRET / MOA assay, NRAS G12C; format: biochemical; details: read-out: IC50* NRAS G12C FRET data
Chain of NRAS G12C (P01111 whole entry G12C): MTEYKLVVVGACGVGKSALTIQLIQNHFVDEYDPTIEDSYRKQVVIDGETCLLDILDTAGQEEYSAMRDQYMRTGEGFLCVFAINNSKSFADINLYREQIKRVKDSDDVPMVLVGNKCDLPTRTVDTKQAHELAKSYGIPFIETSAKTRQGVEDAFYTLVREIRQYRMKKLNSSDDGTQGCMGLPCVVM
Chain of NRAS G12C (P62937 whole entry): as the sequence (P62937 whole entry) above
Procedure, shortened: as §1

[10] = biological target: NRAS Q61R (Homo sapiens (Human), UniProt P01111+P62937, Q61R); assay: Ras-Raf (BRAF RBD) disruption / FRET / MOA assay, NRAS Q61R; format: biochemical; details: NRAS Q61R; Ras-Raf disruption/FRET/MOA assay; read-out: IC50* NRAS Q61R FRET data
Chain of NRAS Q61R (P01111 whole entry Q61R): as the sequence (P01111 whole entry G12C) above, with C12G, Q61R counted along it
Chain of NRAS Q61R (P62937 whole entry): as the sequence (P62937 whole entry) above
Procedure: as §2, §3, §4, §5
as §3, with “Compound was” for “Compound is”, “allophycocyanin was” for “allophycocyanin is”, “a K-Ras:RAF” for “a Ras:RAF”, “complex were” for “complex are”

[11] = biological target: NRAS Q61K (Homo sapiens (Human), UniProt P01111+P62937, Q61K); assay: Ras-Raf (BRAF RBD) disruption / FRET / MOA assay, NRAS Q61K; format: biochemical; details: NRAS Q61K; Ras-Raf disruption/FRET/MOA assay; read-out: IC50* NRAS Q61K FRET data
Chain of NRAS Q61K (P01111 whole entry Q61K): as the sequence (P01111 whole entry G12C) above, with C12G, Q61K counted along it
Chain of NRAS Q61K (P62937 whole entry): as the sequence (P62937 whole entry) above
Procedure: as §2, §3, §4, §5
as §3, with “Compound was” for “Compound is”, “allophycocyanin was” for “allophycocyanin is”, “a K-Ras:RAF” for “a Ras:RAF”, “complex were” for “complex are”

[12] = biological target: NRAS WT (Homo sapiens (Human), UniProt P01111+P62937); assay: Ras-Raf (BRAF RBD) disruption / FRET / MOA assay, NRAS WT; format: biochemical; details: read-out: IC50* NRAS WT FRET data
Chain of NRAS WT (P01111 whole entry): as the sequence (P01111 whole entry G12C) above, with C12G counted along it
Chain of NRAS WT (P62937 whole entry): as the sequence (P62937 whole entry) above
Procedure: as §2, §3, §4, §5
as §3, with “Compound was” for “Compound is”, “allophycocyanin was” for “allophycocyanin is”, “a K-Ras:RAF” for “a Ras:RAF”, “complex were” for “complex are”

[13] = tested on: NCI-H358 cells (K-Ras G12C); assay: Potency assay: pERK in NCI-H358 cells; format: cell-based, human; details: Homo sapiens, NCI-H358; H358 KRAS G12C; read-out: pERK EC50
Procedure, shortened: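 pERK decrease read by AlphaLISA SureFire p-ERK1/2 or In-Cell Western after 4 h compound exposure at 37 °C, 5% CO2.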

[14] = tested on: NCI-H358 (K-Ras G12C); assay: CellTiter-Glo cell viability assay, NCI-H358; format: cell-based, human; details: Homo sapiens, NCI-H358, 120 h, NCI-H358, 5-day treatment; class symbols; read-out: Additional H358 Cell Viability assay data (K-Ras G12C, IC50)
Procedure, shortened: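 Cells seeded, compound added directly, 5-day exposure. Plates to RT ~30 min, CellTiter-Glo luminescence read. Normalized to DMSO avg (x100); 4-parameter logistic fit.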

Chain of K-Ras G12C (P01116-2 other isoform, or with tags, fused parts or gaps G12C): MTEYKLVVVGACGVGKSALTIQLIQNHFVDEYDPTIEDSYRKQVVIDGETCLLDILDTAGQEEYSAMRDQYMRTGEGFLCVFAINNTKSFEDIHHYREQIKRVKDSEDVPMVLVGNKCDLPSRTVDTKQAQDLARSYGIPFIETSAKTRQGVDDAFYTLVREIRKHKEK
Chain of K-Ras G12C (P62937 whole entry): as the sequence (P62937 whole entry) above

Compound	IC50 [1]	IC50 [2]	IC50 [3]	IC50 [4]	IC50 [5]	IC50 [6]	IC50 [7]	IC50 [8]	IC50 [9]	IC50 [10]	IC50 [11]	IC50 [12]	EC50 [13]	IC50 [14]
C=CC(=O)N1CC[C@H](C(=O)N(C)[C@H](C(=O)N[C@H]2Cc3cc(sn3)-c3ccc4c(c3)c(c(-c3cccnc3[C@H](C)OC)n4CC)CC(C)(C)COC(=O)[C@@H]3CCCN(N3)C2=O)C(C)C)C1 (atropisomer, axis not shown) [Example A340]	0.1 to 1 µM	0.1 to 1 µM	1 to 10 µM	> 10 µM	1 to 10 µM	1 to 10 µM	1 to 10 µM	0.1 to 1 µM	0.1 to 1 µM	1 to 10 µM	0.1 to 1 µM	0.1 to 1 µM	–	–
C=CC(=O)N(C)[C@H]1CCN(C(=O)N(C)[C@H](C(=O)N[C@H]2Cc3nc(cs3)-c3ccc4c(c3)c(c(-c3cccnc3[C@H](C)OC)n4CC)CC(C)(C)COC(=O)[C@@H]3CCCN(N3)C2=O)C(C)C)C1 (atropisomer, axis not shown) [Example A384]	–	0.1 to 1 µM	0.1 to 1 µM	0.1 to 1 µM	0.1 to 1 µM	0.1 to 1 µM	–	–	0.01 to 0.1 µM	0.1 to 1 µM	0.01 to 0.1 µM	0.1 to 1 µM	< 5 µM	< 0.01 µM
CCn1c(-c2cccnc2[C@H](C)OC)c2c3cc(ccc31)-c1cccc(c1)C[C@H](NC(=O)[C@H](C1CCCC1)N(C)C(=O)[C@@H]1CN(C(=O)C#CC(C)(C)N(C)C)C[C@@H]1C)C(=O)N1CCC[C@H](N1)C(=O)OCC(C)(C)C2 (atropisomer, axis not shown) [Example A391]	< 0.01 µM	1 to 10 µM	1 to 10 µM	> 10 µM	1 to 10 µM	1 to 10 µM	1 to 10 µM	1 to 10 µM	< 0.01 µM	1 to 10 µM	1 to 10 µM	1 to 10 µM	< 5 µM	–

More lines, main results first:

IC50 [1]	IC50 [2]	IC50 [3]	IC50 [4]	IC50 [5]	IC50 [6]	IC50 [7]	IC50 [8]	IC50 [9]	IC50 [10]	IC50 [11]	IC50 [12]	EC50 [13]	Compound	IC50 [14]
0.01 to 0.1 µM	0.1 to 1 µM	1 to 10 µM	1 to 10 µM	1 to 10 µM	1 to 10 µM	1 to 10 µM	1 to 10 µM	0.01 to 0.1 µM	1 to 10 µM	1 to 10 µM	1 to 10 µM	< 5 µM	CO[C@@H](C)c1ncccc1-c1c2c3cc(ccc3n1CC(F)(F)F)-c1cc(cc(C(F)F)c1)C[C@H](NC(=O)[C@H](C(C)C)N(C)C(=O)[C@H]1CCN(C(=O)C#CC(C)(C)N3CCC3)C1)C(=O)N1CCC[C@H](N1)C(=O)OCC(C)(C)C2 (atropisomer, axis not shown) [Example A370]	–
0.1 to 1 µM	1 to 10 µM	1 to 10 µM	> 10 µM	1 to 10 µM	1 to 10 µM	> 10 µM	> 10 µM	0.1 to 1 µM	> 10 µM	> 10 µM	1 to 10 µM	< 5 µM	C=CC(=O)N1CC[C@H](C(=O)N(C)[C@H](C(=O)N[C@H]2C[C@H]3CN(CCO3)c3ccc4c(c3)c(c(-c3cccnc3[C@H](C)OC)n4CC)CC(C)(C)COC(=O)[C@@H]3CCCN(N3)C2=O)C(C)C)C1 (atropisomer, axis not shown) [Example A378]	–
